Laboratory results published in patent publication US12714669B2, “Liposomal formulations comprising AT1 receptor blockers and uses thereof” (YISSUM RESEARCH DEVELOPMENT COMPANY OF THE HEBREW …, priority 2020, dated 2026).
pIC50: −log10 of the molar value. Entries after “also recorded” stand apart in the source; their conditions may differ. Where two headings read alike, the source gives them in different places.

Experiments:
[1] = biological target: T1, AT1 receptor (Homo sapiens, UniProt P30556); assay: IC50 / affinity to AT1 receptor (stated, not measured in the patent); format: binding; conditions: corresponding to the nM values; read-out: IC50 to AT1 receptor, as mass concentration (converted)
T1 sequence (P30556 1-359): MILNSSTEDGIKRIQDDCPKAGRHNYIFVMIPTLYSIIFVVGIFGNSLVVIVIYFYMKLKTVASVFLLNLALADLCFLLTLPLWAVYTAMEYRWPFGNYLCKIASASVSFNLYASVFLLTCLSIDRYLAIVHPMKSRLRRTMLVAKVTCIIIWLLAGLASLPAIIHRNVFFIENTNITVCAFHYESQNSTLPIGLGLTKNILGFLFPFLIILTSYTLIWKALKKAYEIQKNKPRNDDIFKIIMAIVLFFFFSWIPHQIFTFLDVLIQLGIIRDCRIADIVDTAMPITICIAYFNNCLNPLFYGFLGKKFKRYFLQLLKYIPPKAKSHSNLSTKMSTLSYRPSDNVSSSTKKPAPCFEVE

[2] = biological target: T1, AT1 receptor; conditions: cited from earlier work
[3] = aqueous media; compared with valsartan; cited from earlier work
[4] = tested on: mouse mean blood pressure (MBP); assay: Liposomal valsartan activity on mice blood pressure (CODA monitor, tail); format: in vivo
Description: The development of liposomal ARB's aimed at delivering the drugs to the tumor and exert their activity there while avoiding the systemic effect of the drug on blood pressure. […] MBP was measured using CODA monitor device allowing measurement of blood pressure in mouse tail.
Four mice were tested before drug administration and 2, 24 and 48 h after drug administration. For each mouse, at least 3 measurements (and up to 10) were recorded for each time point.

IC50 [1] [nM]	Structure (SMILES)	pIC50 [2]	affinity for AT1 receptor ([2]; versus losartan, telmisartan, valsartan (Bhuiyan 2013))	solubility [3]	lowering of MBP ([4]; 25 mg/kg, 2 h after administration)	MBP at t=24 h ([4]; 25 mg/kg, 24 h after administration)	effect on MBP 2 h after injection ([4]; 2 h after injection)	MBP after administration ([4]; reduction from 105 mmHg) [mmHg]
2.95	CCOc1nc2cccc(C(=O)O)c2n1Cc1ccc(-c2ccccc2-c2nnn[nH]2)cc1 [Candesartan, 2-ethoxy-3-[[4-[2-(2H-tetrazol-5-yl)phenyl]phenyl]methyl]benzimidazole-4-carboxylic acid]	8.52	highest affinity	very limited; also recorded: not soluble	–	–	–	–
–	CCCCC(=O)N(Cc1ccc(-c2ccccc2-c2nnn[nH]2)cc1)[C@H](C(=O)O)C(C)C [Valsartan, (2S)-3-methyl-2-[pentanoyl-[[4-[2-(2H-tetrazol-5-yl)phenyl]phenyl]methyl]amino]butanoic acid]	–	–	–	~ 35 units	returned to baseline	reduction in MBP	70
